Results as given in the supplement of paper PMC10307832.

How the values were obtained:
Test in all cases: relative viability (nuclei count vs DMSO), 5 days (fraction); higher = more cells survive
KIN001-266 + Trametinib = compound: CCN1CCC(CC1)N2C=C(N=N2)CNC3=CC4=C(C(=CN=C4C(=C3)Cl)C#N)NC5=CC(=C(C=C5)F)Cl [KIN001-266] + CC(=O)Nc1cccc(-n2c(=O)n(C3CC3)c(=O)c3c(Nc4ccc(I)cc4F)n(C)c(=O)c(C)c32)c1 [Trametinib] (partner 0.02 µM)
How it was run: (§1)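 For relative viability, nuclei counts in treated wells were divided by those in vehicle wells. Lung cancer cell lines had been pin-tool dosed in 1536-well plates the day after seeding and cultured for 5 days, then fixed and stained in one step (final 0.05% Triton X-100, 1% formaldehyde, 1 ug/ml Hoechst) and imaged at 4×. Doses were one drug alone or a fixed anchor-drug dose plus five library-drug doses (not always all listed) in √10 steps, and values are duplicate-plate medians.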

KIN001-266 + Tozasertib = compound: CCN1CCC(CC1)N2C=C(N=N2)CNC3=CC4=C(C(=CN=C4C(=C3)Cl)C#N)NC5=CC(=C(C=C5)F)Cl [KIN001-266] + Cc1cc(Nc2cc(N3CCN(C)CC3)nc(Sc3ccc(NC(=O)C4CC4)cc3)n2)n[nH]1 [Tozasertib] (partner 0.1 µM)
How it was run: as §1

KIN001-266 + AZD7762 = compound: CCN1CCC(CC1)N2C=C(N=N2)CNC3=CC4=C(C(=CN=C4C(=C3)Cl)C#N)NC5=CC(=C(C=C5)F)Cl [KIN001-266] + NC(=O)Nc1cc(-c2cccc(F)c2)sc1C(=O)N[C@H]1CCCNC1 [AZD7762] (partner 0.2 µM)
How it was run: as §1

KIN001-266 = compound: CCN1CCC(CC1)N2C=C(N=N2)CNC3=CC4=C(C(=CN=C4C(=C3)Cl)C#N)NC5=CC(=C(C=C5)F)Cl [KIN001-266]
How it was run: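 Viability was defined as treated-well nuclei divided by vehicle-well nuclei, with the median taken over replicate plates. Cells from lung cancer lines sat overnight at 37 °C in 1536-well plates, received five √10-spaced library-drug doses by pinning on vehicle-anchored plates, and grew 5 days without medium change before one-step fixation, permeabilisation and Hoechst staining, 4× imaging and MetaXpress nuclear counts. Only plates with control CV under 25% and at least one doubling were kept.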

Cell Line	relative viability (KIN001-266 + Trametinib; first compound 0.08 µM)	relative viability (KIN001-266 + Trametinib; first compound 0.253 µM)	relative viability (KIN001-266 + Trametinib; first compound 0.8 µM)	relative viability (KIN001-266 + Trametinib; first compound 2.53 µM)	relative viability (KIN001-266 + Trametinib; first compound 8 µM)	relative viability (KIN001-266 + Tozasertib; first compound 0.08 µM)	relative viability (KIN001-266 + Tozasertib; first compound 0.253 µM)	relative viability (KIN001-266 + Tozasertib; first compound 0.8 µM)	relative viability (KIN001-266 + Tozasertib; first compound 2.53 µM)	relative viability (KIN001-266 + Tozasertib; first compound 8 µM)	relative viability (KIN001-266 + AZD7762; first compound 0.08 µM)	relative viability (KIN001-266 + AZD7762; first compound 0.253 µM)	relative viability (KIN001-266 + AZD7762; first compound 0.8 µM)	relative viability (KIN001-266 + AZD7762; first compound 2.53 µM)	relative viability (KIN001-266 + AZD7762; first compound 8 µM)	relative viability (KIN001-266; 0.08 µM)	relative viability (KIN001-266; 0.253 µM)	relative viability (KIN001-266; 0.8 µM)	relative viability (KIN001-266; 2.53 µM)	relative viability (KIN001-266; 8 µM)
PC-3 [JPC-3]	0.785	0.739	0.554	0.741	0.607	0.844	0.916	0.774	0.815	0.788	0.792	0.915	0.799	0.775	0.801	1	1.06	0.916	1.03	0.859
NCI-H1793	0.436	0.452	–	0.39	0.299	0.325	0.416	0.303	0.323	0.272	0.482	0.541	–	0.276	0.376	1.04	0.865	0.617	0.787	0.606
EKVX	0.336	0.312	0.303	0.412	0.344	0.319	0.376	0.374	0.392	0.409	0.706	0.824	0.728	0.667	0.657	0.989	1	0.841	0.868	0.941
ChaGo-K-1	0.914	0.915	0.87	0.637	0.459	0.245	0.218	0.213	0.207	0.198	0.858	0.924	0.856	0.811	0.585	1.04	1.03	0.92	0.929	0.886
NCI-H23	0.435	0.419	0.484	0.356	0.377	0.359	0.381	0.376	0.41	0.271	0.195	0.249	0.304	0.22	0.246	1.01	1.03	0.935	0.917	0.858
EMC-BAC-2	0.896	0.958	0.842	0.868	0.855	0.307	0.316	0.292	0.29	0.281	1.17	1.18	1.15	1.16	1.21	1.07	1.21	0.98	1.07	0.989
LOU-NH91	0.83	0.753	0.698	0.727	0.748	0.675	0.689	0.492	0.609	0.501	0.785	0.617	0.711	0.711	0.734	1.07	1.04	0.737	0.85	0.845
LU99A	0.546	0.489	0.494	0.552	0.458	0.282	0.29	0.259	0.21	0.191	0.367	0.384	0.299	0.257	0.272	0.985	0.952	0.958	0.847	0.849
NCI-H1395	1.02	1.11	1.08	0.925	0.985	0.808	0.779	0.786	0.724	0.677	0.404	0.453	0.399	0.375	0.391	0.948	0.974	1.14	0.892	0.844
NCI-H460	0.204	0.225	0.121	0.135	0.108	0.553	0.423	0.333	0.54	0.121	0.543	0.679	0.681	0.554	0.524	1.01	1.01	0.967	0.951	1.02
201T	0.74	0.724	0.686	0.708	0.754	0.915	0.915	0.915	0.919	0.856	0.66	0.629	0.577	0.54	0.681	1.02	1	0.959	0.995	0.956
NCI-H1944	0.419	0.401	0.324	0.393	0.41	0.25	0.264	0.241	0.235	0.254	0.579	0.544	0.401	0.46	0.394	1.07	0.972	0.919	1.02	0.974
NCI-H2405	0.64	0.658	0.661	0.615	0.61	0.763	0.792	0.746	0.684	0.455	0.761	0.752	0.865	0.739	0.488	1.03	1.02	0.977	0.958	0.821
NCI-H1755	0.727	0.802	0.775	0.792	0.684	0.629	0.541	0.583	0.525	0.522	0.408	0.492	0.425	0.452	0.43	0.968	0.994	0.995	0.975	0.96
NCI-H2087	0.254	0.276	0.16	0.175	0.175	0.206	0.246	0.23	0.175	0.155	1.28	1.37	1.51	1.25	0.771	0.957	1.03	0.94	1.06	0.786
NCI-H727	0.431	0.384	0.391	0.391	0.402	0.759	0.584	0.552	0.715	0.467	0.514	0.554	0.518	0.494	0.649	1.03	0.966	0.843	0.904	0.656

Cell Line	relative viability (KIN001-266 + Trametinib; first compound 0.08 µM)	relative viability (KIN001-266 + Trametinib; first compound 0.253 µM)	relative viability (KIN001-266 + Trametinib; first compound 0.8 µM)	relative viability (KIN001-266 + Trametinib; first compound 2.53 µM)	relative viability (KIN001-266 + Trametinib; first compound 8 µM)	relative viability (KIN001-266 + Tozasertib; first compound 0.08 µM)	relative viability (KIN001-266 + Tozasertib; first compound 0.253 µM)	relative viability (KIN001-266 + Tozasertib; first compound 0.8 µM)	relative viability (KIN001-266 + Tozasertib; first compound 2.53 µM)	relative viability (KIN001-266 + Tozasertib; first compound 8 µM)	relative viability (KIN001-266 + AZD7762; first compound 0.08 µM)	relative viability (KIN001-266 + AZD7762; first compound 0.253 µM)	relative viability (KIN001-266 + AZD7762; first compound 0.8 µM)	relative viability (KIN001-266 + AZD7762; first compound 2.53 µM)	relative viability (KIN001-266 + AZD7762; first compound 8 µM)	relative viability (KIN001-266; 0.08 µM)	relative viability (KIN001-266; 0.253 µM)	relative viability (KIN001-266; 0.8 µM)	relative viability (KIN001-266; 2.53 µM)	relative viability (KIN001-266; 8 µM)
NCI-H650	0.982	0.974	0.942	0.944	0.979	0.791	0.713	0.74	0.732	0.672	1.09	1.17	1	1.08	1.23	1.03	0.972	1.13	0.955	1.15
LK-2	0.891	0.781	0.877	0.847	0.721	0.182	0.18	0.174	0.185	0.154	0.505	0.292	0.19	0.143	0.219	1.14	0.885	1.2	0.969	1.12
NCI-H1993	0.559	0.52	0.478	0.475	0.522	0.596	0.563	0.574	0.567	0.553	1.06	0.815	0.673	0.827	0.624	0.971	0.916	0.815	0.81	0.724
NCI-H838	0.535	0.494	0.557	0.465	0.385	0.266	0.299	0.257	0.254	0.22	0.945	0.83	0.886	0.914	0.924	0.935	0.967	0.961	0.949	0.829
NCI-H1437	0.581	0.577	0.539	0.561	0.383	0.425	0.366	0.393	0.38	0.264	1.12	1.16	1.12	1.1	0.963	0.976	0.988	1.02	0.994	0.883
NCI-H2170	0.969	0.872	0.96	0.934	0.822	0.802	0.715	0.623	0.785	0.709	0.924	0.958	0.924	0.854	0.774	1	0.995	0.979	0.935	1.01
NCI-H1648	0.564	0.508	0.552	0.46	0.61	0.711	0.513	0.436	0.558	0.485	0.721	0.713	0.518	0.572	0.669	0.853	0.859	0.893	0.823	0.966
LCLC-103H	0.715	0.73	0.592	0.645	0.668	0.492	0.494	0.413	0.52	0.504	0.814	0.843	0.82	0.791	0.73	1.08	1.04	1.08	1.06	1.02
NCI-H441	0.455	0.525	0.489	0.471	0.399	0.75	0.737	0.557	0.56	0.261	0.941	1.2	1.11	1.07	1.19	1.11	1.07	1.1	0.939	0.789
BEN	1.01	1.01	1.07	1.03	1.15	0.479	0.534	0.491	0.484	0.506	0.729	0.705	0.676	0.539	0.709	0.991	0.931	1.06	0.864	0.996
LC-2-ad	0.924	0.938	0.918	0.897	0.931	0.451	0.409	0.516	0.444	0.447	0.8	0.867	0.777	0.863	0.636	1.05	0.997	0.947	1.04	0.962
RERF-LC-KJ	0.945	0.849	0.823	0.778	0.556	0.499	0.551	0.557	0.359	0.299	0.984	0.876	0.809	0.768	0.947	1.05	1.04	0.975	0.992	0.726
SW 900	0.83	0.727	1.02	0.812	0.324	0.741	0.584	0.567	0.482	0.491	0.639	0.601	0.527	0.522	0.327	1.02	0.873	0.777	0.848	0.624
NCI-H1915	0.312	0.302	0.298	0.293	0.223	0.447	0.418	0.396	0.422	0.369	0.703	0.729	0.687	0.729	0.727	1.02	0.971	0.982	1.07	0.935
NCI-H596	0.742	0.698	0.851	0.778	0.673	0.882	0.893	0.881	0.925	0.786	1.2	0.931	1.17	0.936	1.04	1.09	0.938	0.878	0.987	0.866
